Test results taken from US11986471B2, “Compounds and methods of use” (Tango Therapeutics, Inc., priority 2018, dated 2024).

What was measured:
PRMT5 [1] = target: T1, PRMT5 (Homo sapiens, UniProt O14744); assay: PRMT5 IC50 assay in the presence of SAM as cofactor; type: biochemical
T1 construct: purchased Viva (custom protein)
Summary of the method: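 Three cofactor conditions tested for PRMT5 inhibition: none, MTA and SAM, each giving an IC50. For conversion to Ki, the MTA-condition IC50 is divided by 13.5 and the SAM-condition IC50 by 1.5, and the two Ki values are expressed as a SAM/MTA ratio.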

PRMT5 [2] = target: T1, PRMT5; assay: PRMT5 IC50 assay with no cofactor; type: biochemical; details: read-out: No Co-factor IC50
Summary of the method: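 IC50 against PRMT5 determined with SAM as cofactor, with no cofactor, and with MTA as cofactor. Ki derived as IC50/1.5 for the SAM assay and IC50/13.5 for the MTA assay; SAM Ki to MTA Ki ratio also reported.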

PRMT5 [3] = target: T1, PRMT5; assay: PRMT5 IC50 assay in the presence of MTA as cofactor; type: biochemical; details: for IC50: PRMT5, MTA as cofactor; for SAM/MTA Ratio: ratio between Ki in the presence of SAM and Ki in the presence of MTA
Summary of the method: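 Three cofactor conditions are run: SAM-bound, MTA-bound and cofactor-free enzyme. IC50 is read from each; for the SAM and MTA arms it is divided by 1.5 and 13.5 respectively to give Ki.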

HAP1 MTAP-intact = assay: SDMA in-cell western assay, HAP1 MTAP-intact cell line; type: cell-based; details: Homo sapiens
Excerpt: Table 1a also indicates IC50 values in an MTAP-isogenic cell line pair for exemplary compounds in an SDMA in-cell western assay (columns 7-8). HAP1 MTAP-intact is a cell line in which endogenous levels of MTAP are expressed, and HAP1 MTAP-deleted is an MTAP-null cell line. […] Compounds with a ratio in the SDMA in-cell western assay of equal to or greater than 3 fold are considered MTAP-selective.

HAP1 MTAP-deleted = assay: SDMA in-cell western assay, HAP1 MTAP-deleted cell line; type: cell-based; details: for IC50: Homo sapiens, HAP1 MTAP-deleted cell line; for MTAP Intact/Deleted Ratio: IC50 ratio HAP1 MTAP-intact / HAP1 MTAP-deleted
Excerpt: Table 1a also indicates IC50 values in an MTAP-isogenic cell line pair for exemplary compounds in an SDMA in-cell western assay (columns 7-8). HAP1 MTAP-intact is a cell line in which endogenous levels of MTAP are expressed, and HAP1 MTAP-deleted is an MTAP-null cell line.

T1 sequence (O14744 whole entry): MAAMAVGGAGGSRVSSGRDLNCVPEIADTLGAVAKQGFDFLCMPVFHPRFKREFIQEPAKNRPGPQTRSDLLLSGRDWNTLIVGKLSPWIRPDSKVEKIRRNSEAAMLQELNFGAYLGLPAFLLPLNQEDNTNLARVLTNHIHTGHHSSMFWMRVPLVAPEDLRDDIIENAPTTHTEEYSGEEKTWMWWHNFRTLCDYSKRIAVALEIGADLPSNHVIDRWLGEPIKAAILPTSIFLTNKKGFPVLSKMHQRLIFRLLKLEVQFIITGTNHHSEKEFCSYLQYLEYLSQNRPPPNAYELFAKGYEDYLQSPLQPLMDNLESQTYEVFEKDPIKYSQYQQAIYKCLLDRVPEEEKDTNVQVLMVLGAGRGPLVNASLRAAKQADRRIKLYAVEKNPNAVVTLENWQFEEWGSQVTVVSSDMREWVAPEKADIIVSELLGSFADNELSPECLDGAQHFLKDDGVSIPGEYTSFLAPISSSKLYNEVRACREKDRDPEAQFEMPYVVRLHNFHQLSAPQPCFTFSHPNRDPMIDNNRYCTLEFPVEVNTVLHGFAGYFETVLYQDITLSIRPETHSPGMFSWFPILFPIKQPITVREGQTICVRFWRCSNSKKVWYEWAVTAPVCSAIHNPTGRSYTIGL
T1 sequence (Q9BQA1 whole entry partner): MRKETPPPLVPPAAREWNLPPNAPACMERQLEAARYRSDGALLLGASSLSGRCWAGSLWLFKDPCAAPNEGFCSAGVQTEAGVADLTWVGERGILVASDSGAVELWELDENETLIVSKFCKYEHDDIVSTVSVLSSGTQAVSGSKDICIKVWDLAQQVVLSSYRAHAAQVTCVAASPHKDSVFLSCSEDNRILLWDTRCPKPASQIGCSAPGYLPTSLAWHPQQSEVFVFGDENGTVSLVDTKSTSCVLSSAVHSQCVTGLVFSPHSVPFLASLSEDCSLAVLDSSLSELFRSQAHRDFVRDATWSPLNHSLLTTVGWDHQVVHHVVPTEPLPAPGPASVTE

Row | SMILES | IC50 (PRMT5 [1]) | IC50 (PRMT5 [2]) | IC50 (PRMT5 [3]) | IC50 (HAP1 MTAP-intact) | IC50 (HAP1 MTAP-deleted) | MTAP Intact/Deleted Ratio (HAP1 MTAP-deleted) | SAM/MTA Ratio (PRMT5 [3])
1 | CC(=O)N1CCC(Nc2cc(C(=O)NC[C@H](O)CN3CCc4c(ccc(OCc5ccnn5C)c4Cl)C3)ncn2)CC1 [Compound 242, (S)-6-((1-acetylpiperidin-4-yl)amino)-N-(3-(5-chloro-6-((1-methyl-1H-pyrazol-5-yl)methoxy)-3,4-dihydroisoquinolin-2(1H)-yl)-2-hydroxypropyl)pyrimidine-4-carboxamide] | 0.5 to 5 µM | ≥ 5 µM | 0.5 to 5 µM | ≥ 10 µM | ≥ 10 µM | C* (an IC50 ratio of less than 3 fold between the IC50 in the HAP1 MTAP-intact cell line and the HAP1 MTAP-deleted cell line) | –
2 | CC(=O)N1CCC(Nc2cc(C(=O)NC[C@H](O)CN3CCc4c(ccc(OCc5cn[nH]c5)c4C)C3)ncn2)CC1 [Compound 253, 6-[(1-acetyl-4-piperidyl)amino]-N-[(2S)-2-hydroxy-3-[5-methyl-6-(1H-pyrazol-4-ylmethoxy)-3,4-dihydro-1H-isoquinolin-2-yl]propyl]pyrimidine-4-carboxamide] | 0.5 to 5 µM | 0.5 to 5 µM | 0.05 to 0.5 µM | 1 to 10 µM | 1 to 10 µM | C* (an IC50 ratio of less than 3 fold between the IC50 in the HAP1 MTAP-intact cell line and the HAP1 MTAP-deleted cell line) | A (a Ki ratio greater than or equal to 10 fold between the Ki in the presence of SAM and the Ki in the presence of MTA)
3 | Cc1c(OCc2cn[nH]c2)ccc2c1CCN(C[C@@H](O)CNC(=O)c1ccnc(NC3CCC3)c1)C2 [Compound 254, 2-(cyclobutylamino)-N-[(2S)-2-hydroxy-3-[5-methyl-6-(1H-pyrazol-4-ylmethoxy)-3,4-dihydro-1H-isoquinolin-2-yl]propyl]pyridine-4-carboxamide] | 0.5 to 5 µM | 0.5 to 5 µM | 0.05 to 0.5 µM | 1 to 10 µM | 1 to 10 µM | C* (an IC50 ratio of less than 3 fold between the IC50 in the HAP1 MTAP-intact cell line and the HAP1 MTAP-deleted cell line) | A (a Ki ratio greater than or equal to 10 fold between the Ki in the presence of SAM and the Ki in the presence of MTA)
4 | CC(=O)N1CCC(Nc2cc(C(=O)NC[C@H](O)CN3CCc4cc(OCc5cnn[nH]5)ccc4C3)ncn2)CC1 [Compound 257, (S)—N-(3-(6-((1H-1,2,3-triazol-5-yl)methoxy)-3,4-dihydroisoquinolin-2(1H)-yl)-2-hydroxypropyl)-6-((1-acetylpiperidin-4-yl)amino)pyrimidine-4-carboxamide] | 0.5 to 5 µM | ≥ 5 µM | 0.05 to 0.5 µM | ≥ 10 µM | 1 to 10 µM | C* (an IC50 ratio of less than 3 fold between the IC50 in the HAP1 MTAP-intact cell line and the HAP1 MTAP-deleted cell line) | A (a Ki ratio greater than or equal to 10 fold between the Ki in the presence of SAM and the Ki in the presence of MTA)
5 | O=C(NC[C@H](O)CN1CCc2cc(OCc3cnco3)ccc2C1)c1cccc(NC2CCC2)c1 [Compound 259, (S)-3-(cyclobutylamino)-N-(2-hydroxy-3-(6-(oxazol-5-ylmethoxy)-3,4-dihydroisoquinolin 2(1H)-yl)propyl)benzamide] | 0.5 to 5 µM | ≥ 5 µM | 0.5 to 5 µM | < 1 µM | < 1 µM | C* (an IC50 ratio of less than 3 fold between the IC50 in the HAP1 MTAP-intact cell line and the HAP1 MTAP-deleted cell line) | A (a Ki ratio greater than or equal to 10 fold between the Ki in the presence of SAM and the Ki in the presence of MTA)

Further lines, with some results ahead:

Row | IC50 (PRMT5 [1]) | IC50 (PRMT5 [2]) | IC50 (PRMT5 [3]) | IC50 (HAP1 MTAP-intact) | IC50 (HAP1 MTAP-deleted) | SMILES | MTAP Intact/Deleted Ratio (HAP1 MTAP-deleted) | SAM/MTA Ratio (PRMT5 [3])
6 | 0.5 to 5 µM | ≥ 5 µM | 0.5 to 5 µM | ≥ 10 µM | ≥ 10 µM | CC(=O)N1CCC(Nc2cc(C(=O)NC[C@@H](O)CN3CCc4cc(OCc5ocnc5C)ccc4C3)ncn2)CC1 [Compound 249, (R)-6-((1-acetylpiperidin-4-yl)amino)-N-(2-hydroxy-3-(6-((4-methyloxazol-5-yl)methoxy)-3N-dihydroisoquinolin-2(1H)-yl)propyl)pyrimidine-4-carboxamide] | C* (an IC50 ratio of less than 3 fold between the IC50 in the HAP1 MTAP-intact cell line and the HAP1 MTAP-deleted cell line) | A (a Ki ratio greater than or equal to 10 fold between the Ki in the presence of SAM and the Ki in the presence of MTA)
7 | 0.5 to 5 µM | ≥ 5 µM | 0.5 to 5 µM | ≥ 10 µM | ≥ 10 µM | CC(=O)N1CCC(Nc2cc(C(=O)NC[C@H](O)CN3CCc4cc(OCc5cnnn5C)ccc4C3)ncn2)CC1 [Compound 250, (S)-6-((1-acetylpiperidin-4-yl)amino)-N-(2-hydroxy-3-(6-((1-methyl-1H-1,2,3-triazol-5-yl)methoxy)-3,4-dihydroisoquinolin-2(1H)-yl)propyl)pyrimidine-4-carboxamide] | C* (an IC50 ratio of less than 3 fold between the IC50 in the HAP1 MTAP-intact cell line and the HAP1 MTAP-deleted cell line) | A (a Ki ratio greater than or equal to 10 fold between the Ki in the presence of SAM and the Ki in the presence of MTA)
8 | 0.5 to 5 µM | ≥ 5 µM | 0.5 to 5 µM | ≥ 10 µM | ≥ 10 µM | CC(=O)N1CCC(Nc2cc(C(=O)NC[C@H](O)CN3CCc4c(ccc(OCc5conc5C)c4Cl)C3)ncn2)CC1 [Compound 251, (S)-6-((1-acetylpiperidin-4-yl)amino)-N-(3-(5-chloro-6-((3-methylisoxazol-4-yl)methoxy)-3N-dihydroisoquinolin-2(1H)-yl)-2-hydroxypropyl)pyrimidine-4-carboxamide] | C* (an IC50 ratio of less than 3 fold between the IC50 in the HAP1 MTAP-intact cell line and the HAP1 MTAP-deleted cell line) | –
9 | 0.05 to 0.5 µM | ≥ 5 µM | 0.05 to 0.5 µM | ≥ 10 µM | 1 to 10 µM | Cc1ncoc1COc1ccc2c(c1Cl)CCN(C[C@@H](O)CNC(=O)c1ccnc(NC3CCC3)c1)C2 [Compound 252, (S)—N-(3-(5-chloro-6-((4-methyloxazol-5-yl)methoxy)-3,4-dihydroisoquinolin-2(1H)-yl)-2-hydroxypropyl)-2-(cyclobutylamino)isonicotinamide] | C* (an IC50 ratio of less than 3 fold between the IC50 in the HAP1 MTAP-intact cell line and the HAP1 MTAP-deleted cell line) | A (a Ki ratio greater than or equal to 10 fold between the Ki in the presence of SAM and the Ki in the presence of MTA)
10 | 0.5 to 5 µM | ≥ 5 µM | 0.05 to 0.5 µM | ≥ 10 µM | ≥ 10 µM | O=C(NC[C@H](O)CN1CCc2c(ccc(OCc3cnco3)c2Br)C1)c1ccnc(NC2CCC2)c1 [Compound 255, N-[(2S)-3-[5-bromo-6-(oxazol-5-ylmethoxy)-3,4-dihydro-1H-isoquinolin-2-yl]-2-hydroxy-propyl]-2-(cyclobutylamino)pyridine-4-carboxamide] | C* (an IC50 ratio of less than 3 fold between the IC50 in the HAP1 MTAP-intact cell line and the HAP1 MTAP-deleted cell line) | A (a Ki ratio greater than or equal to 10 fold between the Ki in the presence of SAM and the Ki in the presence of MTA)
11 | 0.05 to 0.5 µM | ≥ 5 µM | 0.05 to 0.5 µM | ≥ 10 µM | 1 to 10 µM | CC(=O)N1CCC(Nc2cc(C(=O)NC[C@H](O)CN3CCc4c(ccc(OCc5ocnc5C)c4Cl)C3)ncn2)CC1 [Compound 256, (S)-6-((1-acetylpiperidin-4-yl)amino)-N-(3-(5-chloro-6-((4-methyloxazol-5-yl)methoxy)-3N-dihydroisoquinolin-2(1H)-yl)-2-hydroxypropyl)pyrimidine-4-carboxamide] | C* (an IC50 ratio of less than 3 fold between the IC50 in the HAP1 MTAP-intact cell line and the HAP1 MTAP-deleted cell line) | A (a Ki ratio greater than or equal to 10 fold between the Ki in the presence of SAM and the Ki in the presence of MTA)
12 | 0.5 to 5 µM | ≥ 5 µM | 0.5 to 5 µM | ≥ 10 µM | ≥ 10 µM | O=C(NC[C@H](O)CN1CCc2c(ccc(OCc3cnco3)c2I)C1)c1ccnc(NC2CCC2)c1 [Compound 258, 2-(cyclobutylamino)-N-[(2S)-2-hydroxy-3-[5-iodo-6-(oxazol-5-ylmethoxy)-3,4-dihydro-1H-isoquinolin-2-yl]propyl]pyridine-4-carboxamide] | C* (an IC50 ratio of less than 3 fold between the IC50 in the HAP1 MTAP-intact cell line and the HAP1 MTAP-deleted cell line) | A (a Ki ratio greater than or equal to 10 fold between the Ki in the presence of SAM and the Ki in the presence of MTA)
